Data published in patent EP4786467A1, “QUINOLINONE COMPOUND, PREPARATION METHOD THEREFOR AND USE THEREOF” (Vigonvita Life Sciences Co., Ltd., priority 2023, dated 2025).
pEC50, pIC50: −log10 of the molar value.

Legend:
[1] = biological target: T1, recombinant human 5-HT1A receptor (Homo sapiens, UniProt P08908); assay: 5-HT1A Receptor Agonist Activity Assay (LANCE cAMP, inhibition of cAMP production); format: cell-based; conditions: CHO-K1 cells expressing the recombinant human 5-HT1A receptor, read-out: 5-HT1A agonistic activity (EC50)
T1 construct: expressed in transfected cells
T1 sequence (P08908 1-422): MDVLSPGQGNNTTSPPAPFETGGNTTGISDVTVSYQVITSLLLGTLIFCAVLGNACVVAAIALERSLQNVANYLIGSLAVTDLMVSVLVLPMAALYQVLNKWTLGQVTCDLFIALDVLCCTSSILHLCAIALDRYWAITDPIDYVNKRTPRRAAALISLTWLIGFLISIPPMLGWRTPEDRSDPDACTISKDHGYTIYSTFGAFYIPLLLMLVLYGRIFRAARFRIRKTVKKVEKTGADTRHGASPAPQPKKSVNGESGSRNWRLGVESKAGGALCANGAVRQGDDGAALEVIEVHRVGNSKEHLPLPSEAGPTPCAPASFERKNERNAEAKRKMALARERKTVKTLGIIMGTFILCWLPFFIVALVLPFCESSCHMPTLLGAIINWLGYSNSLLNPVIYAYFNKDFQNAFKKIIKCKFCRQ
Method: The agonistic effect of the compounds on the 5-HT1A receptor was evaluated by testing their inhibitory effect on cAMP production in CHO-K1 cells. 8-OH-DPAT was used as a positive control. The specific procedures were as follows: a) The compounds (test compounds and positive control) were prepared to a stock concentration of 10 mM using DMSO, and Forskolin was prepared to a stock concentration of 10 mM. The initial test concentration of 8-OH-DPAT was 1 µM, diluted 3X. The initial test concentration of the test compounds was 0.1 µM, diluted 3X, and each concentration was repeated twice. 100 nL of the compounds and 10 nL of Forskolin were transferred to the test plate using an Echo, with a final DMSO concentration <1%. b) The stable 5-HT1A cell line was taken out from the incubator to observe the cell status. When the cell density reached 80%-90%, the culture medium was discarded and the cells were washed with 5 mL of DPBS. After discarding DPBS, 2 mL of trypsin was added, and the cells were incubated at 37 °C for 2-5 min. After adding 10 mL of complete culture medium, the cells were collected, which was centrifuged at 1000 rpm for 4 min, and the supernatant was discarded. […]

human SERT = biological target: T2, human SERT (Homo sapiens, UniProt P31645); assay: 5-HT Transporter Inhibitory Activity Assay (Neurotransmitter transporter uptake assay kit); format: cell-based; conditions: HEK-293 cells expressing human SERT
T2 construct: expressed in transfected cells; host or cells: HEK-293 (HEK-hSERT cells)
Method: The inhibitory effect of the compounds on the 5-HT transporter in HEK-293 cells expressing human SERT was tested using the Neurotransmitter transporter uptake assay kit (Molecular Devices product). The test was performed according to the kit instructions, using citalopram as a positive control. The specific procedure was as follows: a) HEK-hSERT cells were seeded at 20,000 cells/well in a 384-well plate and then incubated overnight at 37°C in an incubator. b) The following day, the compounds (test compounds and positive control) were diluted using DMSO from 20 mM DMSO solution to the working concentration. Each test compound and citalopram were transferred to a 384-well plate using a detection buffer containing 0.1% BSA. The initial test concentration of citalopram was 1 µM, diluted 3X. The initial test concentration of the test compounds was 10 µM, diluted 4X, with each concentration repeated twice. c) The cell culture 384-well plate was taken out from the incubator, the culture medium was aspirated from the wells, and 25 µL of the test compound solution was added per well. The cells were incubated at 37°C for 30 min. After incubation, 25 µL of a dye solution was added to each well and the cells were incubated at 37°C for 30 min. d) the fluorescence values were read on a Flexstation 3 and the data were analyzed using Graphpad Prism.

[2] = Rat Pharmacokinetic Experiment; format: in vivo, male SD rats; conditions: for bioavailability: rat, iv 1 mg/kg, po 3 mg/kg; for AUC(0-t) / Cmax: rat plasma, oral (po) dose 3 mg/kg
Method: The compound of Example 2 was used in a pharmacokinetic experiment in rats (non-fasted male SD rats). The compound of the present invention was dissolved in a solvent (0.5% CMC-Na). The intravenous (iv) dose was 1 mg/kg, with an administration volume of 5 ml/kg; the oral (po) dose was 3 mg/kg, with an administration volume of 10 mL/kg body weight. Approximately 0.3 mL of blood samples were collected from the jugular vein of rats at the following time points: 0.083, 0.25, 0.5, 1, 2, 4, 6, 8, and 24 h (n=3 at each time point). The collected blood was stored under ice-cooling conditions. Plasma was rapidly separated by centrifugation, and a precipitant was added. The concentration of the test compound was quantified using LC-MS.

[3] = Mouse Pharmacokinetic Experiment (plasma and brain); format: in vivo, Male ICR mice; conditions: for bioavailability: mouse, iv 0.3 mg/kg, po 1 mg/kg; for Cmax / AUC(0-t): oral (po) dose 1 mg/kg
Method: Animal: Male ICR mice. Animals were randomly assigned to the treatment group and fasted for 12 hours before administration.
Drug to be tested: The compounds were dissolved in solvent (0.5% CMC-Na). The intravenous (iv) dose was 0.3 mg/kg, with an administration volume of 5 ml/kg; the oral (po) dose was 1 mg/kg, with an administration volume of 10 mL/kg body weight.
Sample Collection and Bioanalysis: After administration, blood was collected from the orbital sinus of mice at 0.083, 0.25, 0.5, 1, 2, 4, 6, 8, and 24 hours (n=3 at each time point) and placed in EP tubes containing heparin sodium. Mice were euthanized immediately via vertebral dislocation after blood collection, and their brains were harvested at the corresponding time points. All samples were collected immediately, rapidly frozen, and stored at -70°C for later use.
Plasma samples were obtained by whole blood centrifugation. 10 µL of plasma was then mixed with 190 µL of internal standard solution (20 ng/mL metoprazor in acetonitrile containing 0.1% formic acid). After mixing, the mixture was centrifuged at 13000 rpm for 10 min. For each sample, 120 µL of the supernatant was collected, and 0.5-10 µL (depending on the sensitivity of the compound) was then taken for drug analysis using an appropriate liquid chromatography-tandem mass spectrometry (LC-MS/MS) method. Standards for each analyte were used for calibration and identification.
The brain tissue and extract were homogenized at a brain tissue:extract (50% acetonitrile-water) ratio = 1 (g): 8 (ml) using 5 3mm-magnetic beads in an OMNI Bead Ruptor 24 Elite homogenizer at 3.2 m/s for 2 min. The mixture was centrifuged at 4°C, 3000g for 3 min. 50 µL of supernatant was collected and added with 200 µL of internal standard solution (20 ng/mL dissolved in 80% acetonitrile-water). After mixing well, the mixture was centrifuged at 13000 rpm for 10 min. 120 µL of supernatant was collected for each sample. Then, 0.5-10 µL of the supernatant (depending on the sensitivity of the compound) was taken and analyzed using an appropriate LC-MS/MS method. Standards for each analyte were used for calibration and identification.
Data Analysis: Drug concentrations below the limit of quantitation (LLOQ) were recorded as zero. Pharmacokinetic data analysis was performed in PK Solver using non-compartmental, bolus intravenous injection, or extravascular administration analysis model. Data points below LLOQ were excluded from the analysis to improve the validity of t1/2 calculation.

T2 sequence (P31645 whole entry): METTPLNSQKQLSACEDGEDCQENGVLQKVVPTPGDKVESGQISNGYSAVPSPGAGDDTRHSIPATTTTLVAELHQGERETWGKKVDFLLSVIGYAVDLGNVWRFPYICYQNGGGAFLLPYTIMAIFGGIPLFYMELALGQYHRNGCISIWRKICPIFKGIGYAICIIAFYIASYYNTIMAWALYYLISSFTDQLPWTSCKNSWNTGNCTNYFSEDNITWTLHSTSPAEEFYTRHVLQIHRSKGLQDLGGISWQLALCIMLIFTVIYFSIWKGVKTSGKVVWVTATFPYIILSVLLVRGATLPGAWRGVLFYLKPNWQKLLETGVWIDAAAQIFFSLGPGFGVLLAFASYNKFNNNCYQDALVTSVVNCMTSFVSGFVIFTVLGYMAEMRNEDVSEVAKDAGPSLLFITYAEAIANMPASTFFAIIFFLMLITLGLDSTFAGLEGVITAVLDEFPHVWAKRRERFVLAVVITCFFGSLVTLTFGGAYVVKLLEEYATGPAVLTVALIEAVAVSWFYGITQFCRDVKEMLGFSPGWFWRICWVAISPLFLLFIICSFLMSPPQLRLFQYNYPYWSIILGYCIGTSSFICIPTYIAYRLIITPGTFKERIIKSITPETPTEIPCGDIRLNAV

Row | pEC50 [1] | pIC50 (human SERT) | Structure (SMILES) | further results
1 | 9.30 | – | O=c1ccc2ccc(CCN3CCN(c4cc(F)cc5ccsc45)CC3)cc2[nH]1 [Example 16, 7-(2-(4-(5-fluorobenzo[b]thiophene-7-yl)piperazin-1-yl)ethyl)quinolin-2(1H)-one] | –
2 | – | 7.97 | O=C1CCc2ccc(CCN3CCN(c4cc(F)cc5c4OCO5)CC3)cc2N1 [Example 39, 7-(2-(4-(6-fluorobenzo[d][1,3]dioxol-4-yl)piperazin-1-yl)ethyl)-3,4-dihydroquinolin-2(1H)-one] | –
3 | – | 8.05 | O=c1ccc2ccc(CCN3CCN(c4cc(F)cc5c4CCO5)CC3)cc2[nH]1 [Example 7, 7-(2-(4-(6-fluoro-2,3-dihydrobenzofuran-4-yl)piperazin-1-yl)ethyl)quinolin-2(1H)-one] | –
4 | 9.30 | 8.11 | O=C1CCc2ccc(CCN3CCN(c4cc(F)cc5occc45)CC3)cc2N1 [Example 1, 7-(2-(4-(6-fluorobenzofuran-4-yl)piperazin-1-yl)ethyl)-3,4-dihydroquinolin-2(1H)-one] | bioavailability ([3]; male, ICR, plasma): 100%; Cmax ([3]; male, ICR, mouse brain tissue): 368 ng/g; AUC(0-t) ([3]; male, ICR, mouse plasma): 1170 ng·h/mL; Cmax ([3]; male, ICR, mouse plasma): 68.4 ng/mL
5 | 9.15 | – | [2H]C1([2H])CC(=O)Nc2cc(CCN3CCN(c4cc(F)cc5occc45)CC3)ccc21 [Example 41, 7-(2-(4-(6-fluorobenzofuran-4-yl)piperazin-1-yl)ethyl)-3,4-dihydroquinolin-2(1H)-one-4,4-d2] | –
6 | – | – | O=C1CCc2ccc(CCN3CCN(c4cc(F)cc5c4CCO5)CC3)cc2N1 [Example 2, 7-(2-(4-(6-fluoro-2,3-dihydrobenzofuran-4-yl)piperazin-1-yl)ethyl)-3,4-dihydroquinolin-2(1H)-one] | AUC(0-t) ([2]; in vivo): 5320 ng·h/mL; Cmax ([2]; in vivo): 815 ng/mL; bioavailability ([2]; in vivo): 100%; Cmax ([3]; in vivo, mouse brain tissue): 413 ng/g; AUC(0-t) ([3]; in vivo, mouse plasma): 794 ng·h/mL; Cmax ([3]; in vivo, mouse plasma): 72.8 ng/mL; bioavailability ([3]; in vivo): 77%
7 | 9.00 | – | O=C1CCc2ccc(CCN3CCN(c4c(F)ccc5ccsc45)CC3)cc2N1 [Example 14, 7-(2-(4-(6-fluorobenzo[b]thiophene-7-yl)piperazin-1-yl)ethyl)-3,4-dihydroquinolin-2(1H)-one] | –
8 | – | 7.92 | O=C1CCc2ccc(CCN3CCN(c4cc(F)cc5ccoc45)CC3)cc2N1 [Example 6, 7-(2-(4-(5-fluorobenzofuran-7-yl)piperazin-1-yl)ethyl)-3,4-dihydroquinolin-2(1H)-one] | –
9 | 8.89 | – | O=c1ccc2ccc(CCN3CCN(c4cc(F)cc5ccoc45)CC3)cc2[nH]1 [Example 3, 7-(2-(4-(5-fluorobenzofuran-7-yl)piperazin-1-yl)ethyl)quinolin-2(1H)-one] | –
10 | – | 7.91 | [2H]C1([2H])Cc2ccc(CCN3CCN(c4cc(F)cc5c4CCO5)CC3)cc2NC1=O [Example 22, 7-(2-(4-(6-fluoro-2,3-dihydrobenzofuran-4-yl)piperazin-1-yl)ethyl)-3,4-dihydroquinolin-2(1H)-one-3,3-d2] | –
11 | 8.82 | 7.89 | O=C1CCc2ccc(CCN3CCN(c4cc(F)cc5c4OCC5)CC3)cc2N1 [Example 5, 7-(2-(4-(5-fluoro-2,3-dihydrobenzofuran-7-yl)piperazin-1-yl)ethyl)-3,4-dihydroquinolin-2(1H)-one] | –
12 | – | 8.13 | [2H]C1([2H])C(=O)Nc2cc(CCN3CCN(c4cc(F)cc5occc45)CC3)ccc2C1([2H])[2H] [Example 43, 7-(2-(4-(6-fluorobenzofuran-4-yl)piperazin-1-yl)ethyl)-3,4-dihydroquinolin-2(1H)-one-3,3,4,4-d4] | –
13 | 9.10 | – | O=C1CCc2ccc(CCN3CCN(c4ccc(F)c5sccc45)CC3)cc2N1 [Example 12, 7-(2-(4-(7-fluorobenzo[b]thiophene-4-yl)piperazin-1-yl)ethyl)-3,4-dihydroquinolin-2(1H)-one] | –
14 | 9.30 | 7.59 | O=C1CCc2ccc(CCN3CCN(c4cc(F)cc5ccsc45)CC3)cc2N1 [Example 15, 7-(2-(4-(5-fluorobenzo[b]thiophene-7-yl)piperazin-1-yl)ethyl)-3,4-dihydroquinolin-2(1H)-one] | –

Row | Structure (SMILES) | pEC50 [1] | pIC50 (human SERT) | further results
15 | O=C1CCc2ccc(CCN3CCN(c4cc(F)cc5sccc45)CC3)cc2N1 [Reference compound, 7-(2-(4-(6-fluorobenzo[b]thiophene-4-yl)piperazin-1-yl)ethyl)-3,4-dihydroquinolin-2(1H)-one, reference compound] | 9.00 | 7.82 | bioavailability ([2]; male, SD, plasma): 43%; AUC(0-t) ([2]; male, SD): 1560 ng·h/mL; Cmax ([2]; male, SD): 280 ng/mL; bioavailability ([3]; male, ICR, plasma): 50%; Cmax ([3]; male, ICR, mouse brain tissue): 254 ng/g; AUC(0-t) ([3]; male, ICR, mouse plasma): 468 ng·h/mL; Cmax ([3]; male, ICR, mouse plasma): 27.5 ng/mL
